Data published in ChEMBL document CHEMBL1121775, “Synthesis and antimalarial effects of N2-aryl-N4-[(dialkylamino)alkyl]- and N4-aryl-N2-[(dialkylamino)alkyl]-2,4-quinazolinediamines” (J Med Chem, 1981).
Where “and” joins values, the source holds several entries; their conditions need not be identical. Equal entries are not always repeated.

Key:
[1] = The ratio of SD90 of the quinine hydrochloride, to the SD90 of the test substance for the Dose of 74.5 mg/kg; assay type: functional
Plasmodium berghei [2] = test: Antimalarial effect against trophozoite-induced Plasmodium berghei in mice (Mus musculus) at 320 mg/kg subcutaneous dose; assay type: functional
Plasmodium berghei [3] = test: Antimalarial effect against trophozoite-induced Plasmodium berghei in mice (Mus musculus) at 160 mg/kg subcutaneous dose; assay type: functional
Plasmodium berghei [4] = test: Antimalarial activity against trophozoite-induced Plasmodium berghei in mice (Mus musculus); assay type: functional
Plasmodium berghei [5] = test: (§1) Antimalarial effect against trophozoite-induced Plasmodium berghei in mice (Mus musculus) at 640 mg/kg subcutaneous dose; assay type: functional
Plasmodium berghei [6] = test: Antimalarial effect against trophozoite-induced Plasmodium berghei in mice (Mus musculus) after 40 mg/kg subcutaneous dose; assay type: functional
Plasmodium berghei [7] = test: Antimalarial effect against trophozoite-induced Plasmodium berghei in mice (Mus musculus) after 20 mg/kg subcutaneous dose; assay type: functional
Plasmodium berghei [8] = test: Antimalarial effect against trophozoite-induced Plasmodium berghei in mice (Mus musculus) at 80 mg/kg subcutaneous dose; assay type: functional
[9] = The ratio of SD90 of the quinine hydrochloride, to the SD90 of the test substance for the Dose of 63 mg/kg; assay type: functional
Mus musculus [10] = test: Number of mice cured at a subcutaneous dose of 320 mg/kg.; assay type: functional
Plasmodium berghei [11] = test: Antimalarial activity against trophozoite-induced Plasmodium berghei in mice (Mus musculus) at 160 mg/kg subcutaneous dose; assay type: functional
Mus musculus [12] = test: Number of mice cured at a dose 160 mg/kg sc; assay type: functional; conditions: route subcutaneous
Mus musculus [13] = test: Antimalarial effect against trophozoite-induced Plasmodium berghei in mice (Mus musculus) at dosage of 320 mg/kg after subcutaneous administration;; assay type: functional
Mus musculus [14] = test: Number of mice cured at a dose of 640 mg/kg sc; assay type: functional; conditions: route subcutaneous, 640 mg/kg
Mus musculus [15] = test: Antimalarial effect against trophozoite-induced Plasmodium berghei in mice (Mus musculus) at dosage of 640 mg/kg after subcutaneous administration; No. of mice (Mus musculus) surviving after 60 days 4; assay type: functional
Plasmodium berghei [16] = test: as §1; assay type: functional; remark: listed apart in the source
Mus musculus [17] = test: Antimalarial effect against trophozoite-induced Plasmodium berghei in mice (Mus musculus) at dosage of 320 mg/kg after subcutaneous administration; No. of mice (Mus musculus) surviving after 60 days 2; assay type: functional
Mus musculus [18] = test: Antimalarial effect against trophozoite induced Plasmodium berghei in mice (Mus musculus) at dosage of 160 mg/kg after subcutaneous administration; No. of mice (Mus musculus) surviving after 60 days 1; assay type: functional
Mus musculus [19] = test: Number of mice cured at a subcutaneous dose of 160 mg/kg.; assay type: functional
[20] = The ratio of SD90 of the quinine hydrochloride, to the SD90 of the test substance for the Dose of 46 mg/kg; assay type: functional
[21] = The ratio of SD90 of the quinine hydrochloride, to the SD90 of the test substance for the Dose of 9.2 mg/kg; assay type: functional
[22] = The ratio of SD90 of the quinine hydrochloride, to the SD90 of the test substance for the Dose of 2.2 mg/kg; assay type: functional
Mus musculus [23] = test: Number of mice cured at a subcutaneous dose of 640 mg/kg.; assay type: functional
Mus musculus [24] = test: Number of toxic deaths at a dose of 640 mg/kg; assay type: toxicity, organism-based; design: dose 640 mg/kg; conditions: in vivo
Mus musculus [25] = test: No of toxic deaths at dose of 640 mg/kg; assay type: ADME, organism-based; design: dose 640 mg/kg; conditions: in vivo
[26] = The ratio of SD90 of the quinine hydrochloride, to the SD90 of the test substance for the Dose of 16 mg/kg; assay type: functional
Mus musculus [27] = test: Number of mice cured at a dose of 320 mg/kg sc; assay type: functional; conditions: route subcutaneous
[28] = The ratio of SD90 of the quinine hydrochloride, to the SD90 of the test substance for the Dose of 47 mg/kg; assay type: functional

SMILES | MST (Plasmodium berghei [2]) [days] | MST (Plasmodium berghei [3]) [days] | SD90 (Plasmodium berghei [4]) [mg/kg/day] | MST (Plasmodium berghei [6]) [days] | MST (Plasmodium berghei [7]) [days] | MST (Plasmodium berghei [8]) [days] | No. of survivals (Mus musculus [10]) | MST (Plasmodium berghei [6]; 40 mg/kg) | other results
C=C[C@H]1CN2CC[C@H]1C[C@H]2[C@H](O)c1ccnc2ccc(OC)cc12 [QUININE] | 3.2 | 2 | 74.5 | 1 | 0.2 | 1.4 | – | – | Ratio [1]: 1; MST (Plasmodium berghei [5]): 5.4 days
CCN1CCCC(Nc2nc(Nc3ccc(Cl)c(Cl)c3)nc3cc(Cl)ccc23)C1 (configuration not stated) | 0.3 | – | 63 | – | 0.1 | 0.3 | – | – | Ratio [9]: 1.2
CCN(CC)C1CCC(Nc2nc(Nc3ccc(I)cc3)c3ccccc3n2)CC1 (configuration not stated) | 9.9 | 14.4 | – | 0.5 | 0.3 | – | 2 | – | MST (Plasmodium berghei [11]): 8.6 days; No. of survivals (Mus musculus [12]): 2; MST (Mus musculus [13]): 9.4 days; No. of survivals (Mus musculus [14]): 3 and 2; MST (Plasmodium berghei [8]; 80 mg/kg): 0.7 days and 0.5 days
CCN(CC)C1CCC(Nc2nc(Nc3ccc(Cl)c(Cl)c3)nc3ccc(Cl)cc23)CC1 (configuration not stated) | – | – | – | – | 1.3 | 14.9 | 2 | 13.3 days and 12.9 days | MST (Mus musculus [15]): 12.9 days; MST (Plasmodium berghei [11]): 12.9 days; MST (Plasmodium berghei [16]): 18.4 days; MST (Mus musculus [17]): 27.2 days; No. of survivals (Mus musculus [14]): 4 and 3; MST (Mus musculus [18]): 13.9 days; No. of survivals (Mus musculus [19]): 1
CCN1CCCC(Nc2nc(Nc3ccc(Cl)c(Cl)c3)nc3ccc(Cl)cc23)C1 (configuration not stated) | – | 0.3 | 46 | 0.1 | 0.1 | – | – | – | Ratio [20]: 1.6
CN(C)C1CCC(Nc2nc(Nc3ccc(Cl)c(Cl)c3)nc3ccccc23)CC1 (stereo in doubt; 24) | – | – | 9.2 | – | – | 6.4 | 3 | 4.8 days and 3.8 days | MST (Plasmodium berghei [2]; 320 mg/kg): 24.3 days; MST (Plasmodium berghei [11]; 160 mg/kg): 20.1 days and 16.5 days; Ratio [21]: 8.2; MST (Plasmodium berghei [7]; 20 mg/kg): 0.4 days; No. of survivals (Mus musculus [19]; 160 mg/kg): 1 and 2
CCN1CCCC(Nc2nc(Nc3ccc(Cl)c(Cl)c3)nc3ccccc23)C1 (configuration not stated) | 13.8 | – | 2.2 | – | 0.4 | 1 | – | 0.6 days and 0.5 days | MST (Plasmodium berghei [3]; 160 mg/kg): 6.2 days and 7.3 days; Ratio [22]: 34; MST (Plasmodium berghei [16]; 640 mg/kg): 13.8 days and 24.2 days; No. of cured (Mus musculus [23]; 640 mg/kg): 3 and 2
CC1(C)N=C(N)N=C(N)N1c1ccc(Cl)cc1 [CYCLOGUANIL] | – | – | – | 13.4 | – | – | – | – | No. of toxic deaths (Mus musculus [24]): 5; MST (Plasmodium berghei [7]; 20 mg/kg): 7.9 days and 8.1 days; No. of toxic deaths (Mus musculus [25]): 5; MST (Plasmodium berghei [8]; 80 mg/kg): 21.6 days and 21.9 days
CN1CCCC1CCNc1nc(Nc2ccc(C(F)(F)F)cc2)nc2ccccc12 (configuration not stated) | 15.5 | 10.5 | 16 | 1.2 | 1 | 3.2 | – | – | Ratio [26]: 4.7; No. of cured (Mus musculus [27]): 2; MST (Plasmodium berghei [16]): 25.8 days; No. of cured (Mus musculus [23]): 4
CSc1ccc(Nc2nc(NCCCN3CCCC3)c3ccccc3n2)cc1 | – | 6.8 | 47 | 1 | – | – | – | – | No. of toxic deaths (Mus musculus [24]): 5; Ratio [28]: 1.6
